Test results published in patent publication US9790189B2, “Disubstituted 5-fluoro pyrimidine derivatives containing a sulfondiimine group” (Bayer Pharma Aktiengesellschaft, priority 2014, dated 2017).
Values after ≈ are worked out from the molar mass of the structure shown. Where two headings read alike, the source gives them in different places.

Key:
HeLa cells = assay: Proliferation assay, HeLa (crystal violet); type: cell-based; settings: Homo sapiens, 96 h, 4 days, read-out: Inhibition of HeLa cell proliferation IC50
Procedure: (§1) Cultivated tumour cells (HeLa, human cervical tumour cells, ATCC CCL-2; NCI-H460, human non-small cell lung carcinoma cells, ATCC HTB-177; A2780, human ovarian carcinoma cells, ECACC #93112519; DU 145, hormone-independent human prostate carcinoma cells, ATCC HTB-81; HeLa-MaTu-ADR, multidrug-resistant human cervical carcinoma cells, EPO-GmbH Berlin; Caco-2, human colorectal carcinoma cells, ATCC HTB-37; B16F10, mouse melanoma cells, ATCC CRL-6475) were plated at a density of 5,000 cells/well (DU145, HeLa-MaTu-ADR), 3,000 cells/well (NCI-H460, HeLa), 2,500 cells/well (A2780), 1,500 cells/well (Caco-2), or 1,000 cells/well (B16F10) in a 96-well multititer plate in 200 μL of their respective growth medium supplemented 10% fetal calf serum. After 24 hours, the cells of one plate (zero-point plate) were stained with crystal violet (see below), while the medium of the other plates was replaced by fresh culture medium (200 μl), to which the test substances were added in various concentrations (0 μM, as well as in the range of 0.001-10 μM; the final concentration of the solvent dimethyl sulfoxide was 0.5%). The cells were incubated for 4 days in the presence of test substances. Cell proliferation was determined by staining the cells with crystal violet: the cells were fixed by adding 20 μl/measuring point of an 11% glutaric aldehyde solution for 15 minutes at room temperature. After three washing cycles of the fixed cells with water, the plates were dried at room temperature. The cells were stained by adding 100 μl/measuring point of a 0.1% crystal violet solution (pH 3.0). After three washing cycles of the stained cells with water, the plates were dried at room temperature. The dye was dissolved by adding 100 μl/measuring point of a 10% acetic acid solution. The extinction was determined by photometry at a wavelength of 595 nm. The change of cell number, in percent, was calculated by normalization of the measured values to the extinction values of the zero-point plate (=0%) and the extinction of the untreated (0 μm) cells (=100%).

HeLa-MaTu-ADR cells = assay: Proliferation assay, HeLa-MaTu-ADR (crystal violet); type: cell-based; settings: Homo sapiens, 96 h, 4 days, read-out: Inhibition of HeLa-MaTu-ADR cell proliferation IC50
Procedure: as §1

NCI-H460 cells = assay: Proliferation assay, NCI-H460 (crystal violet); type: cell-based; settings: Homo sapiens, 96 h; NCI-H460, 4 days; read-out: Inhibition of NCI-H460 cell proliferation IC50
Procedure: as §1

DU145 cells = assay: Proliferation assay, DU145 (crystal violet); type: cell-based; settings: Homo sapiens, DU-145, 96 h; DU145, 4 days; read-out: Inhibition of DU145 cell proliferation IC50
Procedure: as §1

Caco-2 cells = assay: Proliferation assay, Caco-2 (crystal violet); type: cell-based; settings: Homo sapiens, 96 h; Caco-2, 4 days; read-out: Inhibition of Caco-2 cell proliferation IC50
Procedure: as §1

B16F10 cells = assay: Proliferation assay, B16F10 (crystal violet); type: cell-based; settings: Mus musculus, B16-F10, 96 h; B16F10, 4 days; read-out: Inhibition of B16F10 cell proliferation IC50
Procedure: as §1

A2780 cells = assay: Proliferation assay, A2780 (crystal violet); type: cell-based; settings: Homo sapiens, 96 h; A2780, 4 days; read-out: Inhibition of A2780 cell proliferation IC50
Procedure: as §1

CDK2/CycE [1] = biological target: T1, CDK2/CycE (Homo sapiens, UniProt P24941); assay: CDK2/CycE kinase assay (TR-FRET, Method 2a)
CDK2/CycE [2] = biological target: T1, CDK2/CycE; assay: CDK2/CycE high ATP kinase assay (TR-FRET, Method 2b)
[3] = Equilibrium shake flask solubility, high throughput from DMSO solution (Method 4a); type: physicochemical; settings: phosphate buffer pH 6.5 with 1% DMSO, aqueous buffer, phosphate buffer pH 6.5, 24 hrs, room temperature
Description: 4. Equilibrium Shake Flask Solubility Assays:
4a) High Throughput Determination of Aqueous Drug Solubility (100 mmolar in DMSO)
The high throughput screening method to determine aqueous drug solubility is based on:
Thomas Onofrey and Greg Kazan, Performance and correlation of a 96-well high throughput screening method to determine aqueous drug solubility, http://www.millipore.com/publications.nsf/a73664f9f981af8c852569b9005b4eee/e565516fb76e7435852 56da30052db77/$FILE/AN1731EN00.pdf
The assay was run in a 96-well plate format. Each well was filled with an individual compound.
All pipetting steps were performed using a robot platform.
100 μl of a 10 mmolar solution of drug in DMSO were concentrated by vacuum centrifugation and resolved in 10 μl DMSO. 990 μl phosphate buffer pH 6.5 were added. The content of DMSO amounts to 1%. The multititer plate was put on a shaker and mixed for 24 hrs at room temperature. 150 μl of the suspension were transferred to a filtration plate. After filtration using a vacuum manifold the filtrate was diluted 1:400 and 1:8000. A second microtiter plate with 20 μl of a 10 mM solution of drug in DMSO served for calibration. Two concentrations (0.005 μM and 0.0025 μM) were prepared by dilution in DMSO/water 1:1 and used for calibration. Filtrate and calibration plates were quantified by HPLC-MS/MS.
Preparation of 0.1 m Phosphate Buffer pH 6.5:
61.86 g NaCl and 39.54 mg KH2PO4 were solved in water and filled up to […]. The mixture was diluted 1:10 with water and the pH adjusted to 6.5 by NaOH.
Materials: • Millipore MultiScreenHTS-HV Plate 0.45 μm
Chromatographic conditions were as follows: • HPLC column: Ascentis Express C18 2.7 μm 4.6×30 mm • Injection volume: 1 μl • Flow: 1.5 ml/min • Mobile phase: acidic gradient • A: Water/0.05% HCOOH • B: Acetonitrile/0.05% HCOOH • 0 min→95% A 5% B • 0.75 min→5% A 95% B • 2.75 min→5% A 95% B • 2.76 min→95% A 5% B • 3 min→95% A 5% B
The areas of sample- and calibration injections were determined by using mass spectromety software (AB SCIEX: Discovery Quant 2.1.3. and Analyst 1.6.1). The calculation of the solubility value (in mg/l) was executed by an inhouse developed Excel macro.

MOLM-13 cells = assay: Proliferation assay, MOLM-13 (Cell Titre-Glo); type: cell-based; settings: Homo sapiens; MOLM-13, 72-hour exposure; read-out: Inhibition of MOLM-13 cell proliferation IC50
Procedure: Non-adherent MOLM-13 human acute myeloid leukemia cells (DSMZ ACC 554) were seeded at a density of 5,000 cells/well in a 96-well multititer plate in 100 μL of growth medium supplemented 10% fetal calf serum. After 24 hours, cell viability of one plate (zero-point plate) was determined with the Cell Titre-Glo Luminescent Cell Viability Assay (Promega), while 50 μL of test compound containing medium was added to the wells of the other plates (final concentrations in the range of 0.001-10 μM and DMSO controls; the final concentration of the solvent dimethyl sulfoxide was 0.5%). Cell viability was assessed after 72-hour exposure with the Cell Titre-Glo Luminescent Cell Viability Assay (Promega).

[4] = Caco-2 permeation assay (Method 5); type: in vitro ADME; settings: human; for Papp A→B at 2 h, 2 µM / Papp B→A at 2 h, 2 µM: pH 7.2, Caco-2, 2 μM test compound; for Papp A→B at 2 h, 2 µM: read-out: Papp A−B (Mari); for Papp B→A at 2 h, 2 µM: read-out: Papp B−A (Mari)
Procedure: Cells were maintained at 37° C. in a humidified 5% CO2 atmosphere. Medium was changed every 2-3 day. Before running the permeation assay, the culture medium was replaced by a FCS-free hepes-carbonate transport buffer (pH 7.2). For assessment of monolayer integrity the transepithelial electrical resistance (TEER) was measured. Test compounds were predissolved in DMSO and added either to the apical or basolateral compartment in final concentration of 2 μM in transport buffer. Before and after 2 h incubation at 37° C. samples were taken from both compartments. Analysis of compound content was done after precipitation with methanol by LC/MS/MS analysis. Permeability (Papp) was calculated in the apical to basolateral (A→B) and basolateral to apical (B→A) directions. […] The efflux ratio basolateral (B) to apical (A) was calculated by dividing the Papp B−A by the Papp A−B. In addition the compound recovery was calculated.

CDK9/CycT1 [5] = biological target: T2, CDK9/CycT1 (Homo sapiens, UniProt P50750); assay: CDK9/CycT1 kinase assay (TR-FRET, Method 1a)
CDK9/CycT1 [6] = biological target: T2, CDK9/CycT1

T2 sequence (P50750 whole entry): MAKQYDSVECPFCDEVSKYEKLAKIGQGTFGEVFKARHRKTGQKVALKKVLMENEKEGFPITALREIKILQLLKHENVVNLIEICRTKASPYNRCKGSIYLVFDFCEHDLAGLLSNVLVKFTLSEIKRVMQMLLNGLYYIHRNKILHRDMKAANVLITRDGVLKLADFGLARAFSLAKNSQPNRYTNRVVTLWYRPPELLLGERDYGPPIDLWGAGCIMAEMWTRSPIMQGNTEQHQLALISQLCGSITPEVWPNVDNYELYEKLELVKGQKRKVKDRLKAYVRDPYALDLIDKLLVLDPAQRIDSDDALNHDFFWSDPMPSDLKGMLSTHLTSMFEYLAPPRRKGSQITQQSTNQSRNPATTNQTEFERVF
T2 sequence (O60563 whole entry partner): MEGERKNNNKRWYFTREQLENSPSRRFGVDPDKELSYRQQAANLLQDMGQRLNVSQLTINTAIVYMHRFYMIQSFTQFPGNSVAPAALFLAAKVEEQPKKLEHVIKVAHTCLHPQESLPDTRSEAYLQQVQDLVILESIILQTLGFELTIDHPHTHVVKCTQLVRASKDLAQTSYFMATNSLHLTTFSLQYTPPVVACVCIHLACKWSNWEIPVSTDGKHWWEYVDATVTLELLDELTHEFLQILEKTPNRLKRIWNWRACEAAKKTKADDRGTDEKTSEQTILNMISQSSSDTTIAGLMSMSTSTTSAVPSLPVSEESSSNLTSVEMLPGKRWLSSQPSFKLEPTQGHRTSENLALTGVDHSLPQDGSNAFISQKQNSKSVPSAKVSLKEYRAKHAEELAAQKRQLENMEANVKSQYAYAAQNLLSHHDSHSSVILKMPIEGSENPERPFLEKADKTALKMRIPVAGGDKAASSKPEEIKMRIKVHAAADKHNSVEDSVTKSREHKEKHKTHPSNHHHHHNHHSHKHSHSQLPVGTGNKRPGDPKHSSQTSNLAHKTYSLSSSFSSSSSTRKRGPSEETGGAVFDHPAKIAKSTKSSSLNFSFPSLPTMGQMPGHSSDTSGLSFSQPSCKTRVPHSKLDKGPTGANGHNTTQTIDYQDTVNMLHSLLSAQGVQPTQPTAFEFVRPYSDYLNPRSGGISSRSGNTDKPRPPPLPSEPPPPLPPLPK

| Structure (SMILES) | IC50 (HeLa cells) [nM] | IC50 (HeLa-MaTu-ADR cells) [nM] | IC50 (NCI-H460 cells) [nM] | IC50 (DU145 cells) [nM] | IC50 (Caco-2 cells) [nM] | IC50 (B16F10 cells) [nM] | IC50 (A2780 cells) [nM] | IC50 (CDK2/CycE [1]) [nM] | IC50 (CDK2/CycE [2]) [nM] | solubility thermodynamic at 24 h [3] [µg/mL] | IC50 (MOLM-13 cells) [nM] | Papp A→B at 2 h, 2 µM [4] [×10⁻⁶ cm/s] | Papp B→A at 2 h, 2 µM [4] [×10⁻⁶ cm/s] | efflux ratio at 2 h, 2 µM ([4]; Caco-2, pH 7.2) | IC50 (CDK9/CycT1 [5]) [nM] | Selectivity CDK9 over CDK2: IC50 (CDK2)/IC50 (CDK9) (CDK9/CycT1 [5]; Methods 1a and 2a) | IC50 (CDK9/CycT1 [6]) [nM] | Selectivity high ATP CDK9 over high ATP CDK2: IC50 (high ATP CDK2)/IC50 (high ATP CDK9) (CDK9/CycT1 [6]; Methods 1b and 2b) |
| --- | --- | --- | --- | --- | --- | --- | --- | --- | --- | --- | --- | --- | --- | --- | --- | --- | --- | --- |
| COc1cc(F)ccc1-c1nc(Nc2cc(CS(C)(=N)=N)cc(S(F)(F)(F)(F)F)c2)ncc1F [Example 8, 5-Fluoro-4-(4-fluoro-2-methoxyphenyl)-N-{3-[(S-methylsulfonodiimidoyl)methyl]-5-(pentafluoro-λ^6-sulfanyl)phenyl}pyrimidin-2-amine] | 104 | 194 | 149 | 130 | 144 | 237 | – | 400 | 2990 | 2.2 (≈ 4.15 µM) | 36 | 3.33 | 5.19 | – | – | – | – | – |
| COc1cc(F)ccc1-c1nc(Nc2cc(F)cc(CS(C)(=N)=NC#N)c2)ncc1F (racemic) [Example 5, (rac)-[(3-Fluoro-5-{[5-fluoro-4-(4-fluoro-2-methoxyphenyl)pyrimidin-2-yl]amino}benzyl)(imino)methyl-λ^6-sulfanylidene]cyanamide] | 73 | 80 | 193 | 42 | 94 | 122 | 35 | 190 | 1470 | – | – | 2.88 | 19.9 | – | – | – | – | – |
| COc1cc(F)ccc1-c1nc(Nc2cc(F)cc(CS(C)(=N)=Nc3ccccc3)c2)ncc1F (racemic) [Example 3, (rac)-5-Fluoro-4-(4-fluoro-2-methoxyphenyl)-N-{3-fluoro-5-[(S-methyl-N-phenylsulfonodiimidoyl)methyl]phenyl}pyrimidin-2-amine] | 991 | 863 | 1090 | 1050 | 1000 | 1270 | 548 | 1400 | – | 1.4 (≈ 2.81 µM) | – | – | – | – | – | – | – | – |
| CS(=N)(=N)Cc1cc(Nc2ncc(F)c(-c3ccc(F)cc3F)n2)cc(S(F)(F)(F)(F)F)c1 [Example 7, 4-(2,4-Difluorophenyl)-5-fluoro-N-{3-[(S-methylsulfonodiimidoyl)methyl]-5-(pentafluoro-λ^6-sulfanyl)phenyl}pyrimidin-2-amine] | 346 | – | – | – | – | – | 337 | 2300 | ≥ 20000 | 1.2 (≈ 2.32 µM) | 244 | 3.21 | 3.57 | 1.1 | 17 | 135 | 26 | 769 |

Results, then the compound that gave them:

| IC50 (HeLa cells) [nM] | IC50 (HeLa-MaTu-ADR cells) [nM] | IC50 (NCI-H460 cells) [nM] | IC50 (DU145 cells) [nM] | IC50 (Caco-2 cells) [nM] | IC50 (B16F10 cells) [nM] | IC50 (A2780 cells) [nM] | IC50 (CDK2/CycE [1]) [nM] | IC50 (CDK2/CycE [2]) [nM] | solubility thermodynamic at 24 h [3] [µg/mL] | IC50 (MOLM-13 cells) [nM] | Papp A→B at 2 h, 2 µM [4] [×10⁻⁶ cm/s] | Papp B→A at 2 h, 2 µM [4] [×10⁻⁶ cm/s] | efflux ratio at 2 h, 2 µM ([4]; Caco-2, pH 7.2) | IC50 (CDK9/CycT1 [5]) [nM] | Selectivity CDK9 over CDK2: IC50 (CDK2)/IC50 (CDK9) (CDK9/CycT1 [5]; Methods 1a and 2a) | IC50 (CDK9/CycT1 [6]) [nM] | Selectivity high ATP CDK9 over high ATP CDK2: IC50 (high ATP CDK2)/IC50 (high ATP CDK9) (CDK9/CycT1 [6]; Methods 1b and 2b) | Structure (SMILES) |
| --- | --- | --- | --- | --- | --- | --- | --- | --- | --- | --- | --- | --- | --- | --- | --- | --- | --- | --- |
| 535 | 696 | 935 | 581 | 847 | 1130 | 355 | 580 | 4290 | – | – | – | – | – | – | – | – | – | C#CCN=S(C)(=N)Cc1cc(F)cc(Nc2ncc(F)c(-c3ccc(F)cc3OC)n2)c1 (racemic) [Example 4, (rac)-5-Fluoro-4-(4-fluoro-2-methoxyphenyl)-N-(3-fluoro-5-{[S-methyl-N-(prop-2-yn-1-yl)sulfonodiimidoyl]methyl}phenyl)pyrimidin-2-amine] |
| 412 | 793 | 968 | 636 | 849 | 1120 | 333 | 1300 | 13000 | 97 (≈ 223 µM) | – | – | – | – | – | – | – | – | CN=S(C)(=N)Cc1cc(F)cc(Nc2ncc(F)c(-c3ccc(F)cc3OC)n2)c1 (racemic) [Example 2, (rac)-N-{3-[(N,S-Dimethylsulfonodiimidoyl)methyl]-5-fluorophenyl}-5-fluoro-4-(4-fluoro-2-methoxyphenyl)pyrimidin-2-amine] |
| 507 | – | – | – | – | – | – | 970 | 19800 | 259 (≈ 540 µM) | – | – | – | – | – | – | – | – | COc1cc(F)ccc1-c1nc(Nc2cc(F)cc(CS(C)(=N)=NCCCO)c2)ncc1F (racemic) [Example 6, (rac)-3-{[(3-Fluoro-5-{[5-fluoro-4-(4-fluoro-2-methoxyphenyl)pyrimidin-2-yl]amino}benzyl)(imino)methyl-λ^6-sulfanylidene]amino}propan-1-ol] |
